Read-outs that look alike come from different tables or passages of the source.
Assays:
[1] = target: NTR1 (Homo sapiens, UniProt P30989); assay: NTR1 Ca2+ Flux dose response (ChanTest, CHO); assay type: cell-based; set-up: host or cells: CHO; settings: profiled by ChanTest
Experimental: The NTR1 Ca^2+ Flux assay was performed by ChanTest (Rockville, Md.). The assay used a CHO cell line, provided by ChanTest, which stably expressed the NTR1 receptor. The cells were grown and plated in Ham's F12 (11765) that was supplemented with fetal bovine serum (10437). Both were supplied by Gibco/Life Technologies (Carlsbad, Calif.). The DPBS (21-031CV) used in the assay was obtained from Cellgro/Mediatech and the G418 (ant-gn-1) was supplied by Invivogen. The Fluo-4 NW Dye (Invitrogen F36206) used to detect calcium mobilization was sourced by Invitrogen. […]
NTSR1 (NTR1) CHO cells are plated in 20 uL of assay media containing Ham's F12 supplemented with 10% fetal bovine serum and 0.4 mg/mL G418 at a concentration of 1.0×10^6 cells per mL into black, 384-well assay plates with clear bottoms using a Multidrop liquid handler. […] Following the incubation in the presence of dye, the assay is run on a Molecular Devices FlexStation-III using 494 excitation and 516 emission wavelengths set to read for 90 seconds with the addition at 18 seconds of 5 uL of 6× final concentration of test compounds and peptide control diluted in assay media containing 0.1% BSA and no more than 9% DMSO to yield a maximum final DMSO concentration of 1.5%. Percent activation is calculated based on the maximum response minus the minimum value over the time course relative to the neurotensin 1 control peptide at 100 pM. […]

[2] = test system: GPCR binding assay panel (˜40 receptors); assay: PDSP GPCR binding assay panel
Source text: (§1) However, these activities in in vitro binding assays may not translate into functional modulation of these receptors.

[3] = Metabolic stability in mouse hepatic microsomes; assay type: in vitro ADME
Experimental: Hepatic metabolic stability was determined using established protocols (Di, L., Kerns, E. H., Hong, Y., Kleintop, T. A., McConnell, O. J., and Huryn, D. M. 2003. Optimization of a higher throughput microsomal stability screening assay for profiling drug discovery candidates. J Biomol Screen 8:453-462). Briefly, the compound (1.0 and 10.0 μM) was preincubated for 10 min at 37° C. in potassium phosphate buffer (pH 7.4) together with 0.5 mg/mL mouse or human hepatic microsomes (Xenotech, Kansas City). The cofactor mixture comprising NADP, G6P, and G6P-DH (BD Biosciences) was added, and aliquots were taken after 0 and 60 min. Samples were analyzed on an Acquity UPLC, coupled with a sample organizer, and interfaced with a triple quadrupole ABI 4000 LC/MS/MS using the methodology described above. The percentage of the compound remaining after a 60 min incubation period was calculated according the following equation: [(area at time 60 min)/(area at time 0 min)]×100%.

[4] = test system: signal; assay: Panlabs/Ricerca lead profiling panel, signal; assay type: binding; settings: @ 10 μM
Source text: as §1

[5] = Aqueous solubility, direct UV kinetic solubility method; assay type: physicochemical
Experimental: The aqueous solubility of the compound was determined using a direct UV kinetic solubility method (Avdeef, A. 2001. Physicochemical profiling (solubility, permeability and charge state). Curr Top Med Chem 1:277-351) in a 96-well format at pH 5.0, 6.2 and 7.4. Compounds (250 μM) were incubated for 18.0h at room temperature to achieve equilibrium, and then filtered to remove any precipitate. The concentration of the compound in solution was measured by UV absorbance (250-498 nm) and compared to the spectra of precipitation-free reference solutions. Spectroscopically pure 1-Propanol (Sigma, St Louis, Mo.) was used as a cosolvent to suppress precipitation in the reference solutions. The solubility of each compound was determined using μSOL Evolution Plus software v3.2 (pION Inc) and is expressed as the concentration (μg/mL) of a solute in a saturated solution

[6] = Plasma protein binding, Rapid Equilibrium Device, mouse plasma; assay type: in vitro ADME; settings: mouse plasma (EDTA), diluted 1:1 with PBS, read-out: Plasma Protein Binding (% Bound) (converted)
Experimental: The extent of compound bound to plasma proteins was measured using the Rapid Equilibrium Device (Pierce Thermo Scientific, Rockford Ill.). The base plate was rinsed with […] followed by 2× washes with ultrapure water and allowed to dry. Human and mouse plasma (BioChemed Services, Winchester Va.) collected in EDTA was allowed to thaw at room temperature and then warmed to 37° C., and diluted 1:1 (v:v) with 1×PBS, pH 7.4, prior to the assay. The compound (1.0 and 10.0 μM final) was added to the chamber containing 300 μl plasma:PBS. Next, 500 μl of dialysis buffer (1×PBS, pH7.4) was added to the buffer chambers of the inserts. The chambers were covered with sealing tape and incubated at 37° C. on an orbital shaker at 300× rpm for 4 hours. […] Results reported are the mean of each reaction duplicate, normalized to the internal standard, and expressed as a percent compound bound after the incubation time. The amount of compound in the supernatant was determined by LC/MS/MS and the percent of free and bound compounds were calculated with the following formulas: Percent of free parent compound=(amount of compound in receiver chamber/amount of compound in donor chamber)*100.

Chain of NTR1 (P30989 whole entry): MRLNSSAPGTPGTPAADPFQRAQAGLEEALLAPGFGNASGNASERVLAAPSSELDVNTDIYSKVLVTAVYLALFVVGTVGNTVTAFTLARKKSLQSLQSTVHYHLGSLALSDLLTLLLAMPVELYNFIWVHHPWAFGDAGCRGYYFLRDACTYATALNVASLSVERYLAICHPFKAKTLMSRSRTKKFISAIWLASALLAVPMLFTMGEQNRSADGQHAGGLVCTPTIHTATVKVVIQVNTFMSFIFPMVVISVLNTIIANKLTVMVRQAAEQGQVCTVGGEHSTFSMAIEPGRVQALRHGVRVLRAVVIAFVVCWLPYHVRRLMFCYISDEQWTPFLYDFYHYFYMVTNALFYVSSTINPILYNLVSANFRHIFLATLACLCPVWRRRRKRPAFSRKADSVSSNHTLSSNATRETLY

In the case of `COc1cc2nc(C3CC3)nc(N3CCN(c4ccccc4OC)CC3)c2cc1OC` [Compound 315, 2-cyclopropyl-6,7-dimethoxy-4-(4-(2-methoxyphenyl)piperazin-1-yl)quinazoline], the “NTR1 Ca2+ Flux assay activity” value [1] is reported as “not active”, the “promiscuity in GPCR binding assay panel” value ([2]; at 10 μM, ˜40 receptors tested) is reported as “moderately promiscuous” and the Ki ([2]; on 7 receptors, read-out: Kis in GPCR binding assay panel) is reported as less than 10 µM. The “Hepatic Microsome Stability (% Remaining at 1 hr)” value [3] was 0.16%, the “metabolism in vitro with liver homogenates” value [3] was “metabolized rapidly” and the activity at signal [4] was 69%. The solubility at 18 h ([5]; 1x PBS, pH 7.4, aqueous buffer, kinetic from dmso stock, read-out: Aqueous Solubility in 1x PBS, pH 7.4) was 0.45 µg/mL, the “Aqueous Solubility in 1x PBS, pH 7.4” value ([5]; 1x PBS, pH 7.4, molar units) was 1.1 μM and the “Aqueous Solubility in pION's buffer” value ([5]; pH 6.2) was 9.0 μg/mL. For the same compound, the solubility at 18 h ([5]; pH 7.4, molar units, read-out: Aqueous Solubility in pION's buffer) was 1.2 µM, the solubility at 18 h ([5]; pION's buffer, aqueous buffer, kinetic from dmso stock, pH 5.0, molar units, read-out: Aqueous Solubility in pION's buffer) was greater than 297 µM and the solubility at 18 h ([5]; pION's buffer, aqueous buffer, kinetic from dmso stock, pH 5.0, read-out: Aqueous Solubility in pION's buffer) was greater than 125 µg/mL. It also gave a solubility at 18 h ([5]; pION's buffer, pH 7.4, aqueous buffer, kinetic from dmso stock, read-out: Aqueous Solubility in pION's buffer) of 0.52 µg/mL, a fraction unbound at 4 h, 1 μM ([6]; pH 7.4, 1 μM) of 0.0033 and a fraction unbound at 4 h, 10 μM ([6]; pH 7.4, 10 μM) of 0.0116.

Source: patent publication US9868707B2, “Small molecule agonists of neurotensin receptor 1” (SANFORD-BURNHAM MEDICAL RESEARCH INSTITUTE, priority 2012, dated 2018)
